# Reference: patent US20260137698A1, “CYCLIN-DEPENDENT KINASE 7 INHIBITORS” (JOINT STOCK COMPANY «BIOCAD», priority 2022, published 2026)
# Legend:
# [1] = General cytotoxicity on primary differentiated HepaRG cells (72 h); format: cell-based; conditions: human, general toxicity, mean value from several measurements
# Description: General cytotoxicity of CDK7 inhibitors according to the present invention was investigated using primary differentiated HepaRG cells (Biopredic Int, order no. HPR101). A week before the measurement, the cells were thawed and maintained in Basal hepatic cell medium (Biopredic Int, order no. MIL700079) supplemented with HepaRG maintenance/metabolism medium supplement with antibiotics (Biopredic Int, order no. ADD620C). The medium in vials with cells was changed every 2-3 days. The night before the test, the cells were plated in wells of 96-well plates (Corning Inc., order no. 3599) at 25×10^3 cells in 100 μl of medium per well. The next day, test compounds were introduced into plate wells with cells, untitrated at a concentration ranging from 200 μM to 0.2 nM, and incubated for 72 hours. Cell viability was assessed as described above.
# CDK2/Cyclin A = CDK2/Cyclin A (Homo sapiens, UniProt P24941); assay: Inhibition of CDK2/Cyclin A kinase activity (ADP-Glo); format: biochemical; conditions: mean value from several measurements; read-out: IC50 CDK2/Cyclin A
# Procedure: (§1) Measurements were carried out in a 5 μl reaction volume using a 384-well plate (Corning Inc., order no. 4513). The analyzed substances were titrated from 50 μM in increments of 4 at 11 concentration points in a normal strength kinase buffer A (Thermo Fisher Scientific Inc, cat. no. PV3189) supplemented with DTT (Sigma, orde. no. 646563-10X.5ML) and prepared with water (Panreac, order no. 701074). Kinase was diluted in an analogous buffer, mixed with test compounds in plate wells and preincubated for 10 minutes at 25° C. Following incubation, a mixture of reaction substrate (CDKtide (SignalChem, order no. C06-58) or Histone H1 (SignalChem, order no. H10-54N) or PDKtide (SignalChem, order no. P10-58) and ATP (SignalChem, order no. V915B) prepared on a normal strength kinase buffer A was added. 1% solution of dimethyl sulfoxide (DMSO) (Sigma-Aldrich, order no. D2438) in the reaction volume was used as a negative control. The final concentrations of all reaction components are shown in Table 5. The plate was centrifuged at 400 rcf (Eppendorf, 5804 R) for 1 minute and incubated for 40-60 minutes at 25° C. The amount of ATP consumed in the kinase reaction was then measured using the ADP-Glo™ detection system. Luminescence signal was measured using Spark 20M tablet multifunction reader (Tecan Group Ltd, Switzerland). IC50 value was calculated using Magellan 7.2 (Tecan Group Ltd, Switzerland) by approximating experimental points by four-parameter model with the optimization by Levenberg-Marquardt:
# (§2) [formula] • where A is the upper asymptote; D is the lower asymptote; C is IC50, half-maximal inhibitory concentration of kinase, nM; B is the curvature (slope).
# CDK9/Cyclin K = CDK9/Cyclin K (Homo sapiens, UniProt P50750); assay: Inhibition of CDK9/Cyclin K kinase activity (ADP-Glo); format: biochemical; conditions: mean value from several measurements; read-out: IC50 CDK9/Cyclin K
# Sequence of CDK9/Cyclin K (P50750 whole entry): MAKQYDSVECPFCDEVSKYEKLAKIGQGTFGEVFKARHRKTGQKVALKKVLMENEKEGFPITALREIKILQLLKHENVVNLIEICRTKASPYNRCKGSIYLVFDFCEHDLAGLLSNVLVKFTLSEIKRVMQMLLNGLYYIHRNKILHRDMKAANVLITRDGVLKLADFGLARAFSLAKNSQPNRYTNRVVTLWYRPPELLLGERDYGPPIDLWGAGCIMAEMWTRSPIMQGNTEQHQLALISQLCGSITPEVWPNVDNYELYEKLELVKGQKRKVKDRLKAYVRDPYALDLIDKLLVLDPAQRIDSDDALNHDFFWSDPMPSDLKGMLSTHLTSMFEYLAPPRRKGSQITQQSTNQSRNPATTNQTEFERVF
# Sequence of CDK9/Cyclin K (O75909 whole entry partner): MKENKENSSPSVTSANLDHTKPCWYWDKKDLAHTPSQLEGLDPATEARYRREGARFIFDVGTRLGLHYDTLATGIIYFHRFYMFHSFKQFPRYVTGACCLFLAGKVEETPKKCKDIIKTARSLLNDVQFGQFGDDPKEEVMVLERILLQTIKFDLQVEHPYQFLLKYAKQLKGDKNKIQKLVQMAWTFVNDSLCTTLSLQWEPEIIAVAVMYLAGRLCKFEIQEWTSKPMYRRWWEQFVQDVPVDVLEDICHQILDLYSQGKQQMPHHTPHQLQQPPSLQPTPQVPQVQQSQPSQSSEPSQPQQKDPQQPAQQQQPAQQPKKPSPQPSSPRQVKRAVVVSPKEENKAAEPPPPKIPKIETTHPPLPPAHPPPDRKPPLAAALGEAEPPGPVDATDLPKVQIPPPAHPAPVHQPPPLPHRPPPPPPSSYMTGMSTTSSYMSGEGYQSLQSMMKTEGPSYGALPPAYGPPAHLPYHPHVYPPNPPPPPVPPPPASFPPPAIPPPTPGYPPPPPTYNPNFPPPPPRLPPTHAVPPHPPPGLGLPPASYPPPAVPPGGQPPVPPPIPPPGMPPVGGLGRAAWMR
# Procedure: as §1, §2
# CDK7/Cyclin H/MNAT1 = CDK7/Cyclin H/MNAT1 (Homo sapiens, UniProt P50613); assay: Inhibition of CDK7/Cyclin H/MNAT1 kinase activity (ADP-Glo); format: biochemical; conditions: mean value from several measurements; read-out: IC50 CDK7/Cyclin H/MNAT
# Sequence of CDK7/Cyclin H/MNAT1 (P50613 whole entry): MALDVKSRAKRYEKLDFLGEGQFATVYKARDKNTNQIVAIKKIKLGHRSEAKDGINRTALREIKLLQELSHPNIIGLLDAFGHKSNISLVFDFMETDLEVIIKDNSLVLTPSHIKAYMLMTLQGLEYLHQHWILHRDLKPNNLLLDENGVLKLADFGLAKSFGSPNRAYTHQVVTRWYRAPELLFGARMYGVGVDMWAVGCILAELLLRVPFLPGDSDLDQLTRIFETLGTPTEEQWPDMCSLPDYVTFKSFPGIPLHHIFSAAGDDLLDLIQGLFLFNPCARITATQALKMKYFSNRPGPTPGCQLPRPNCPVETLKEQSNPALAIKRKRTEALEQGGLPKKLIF
# Sequence of CDK7/Cyclin H/MNAT1 (P51946 whole entry partner): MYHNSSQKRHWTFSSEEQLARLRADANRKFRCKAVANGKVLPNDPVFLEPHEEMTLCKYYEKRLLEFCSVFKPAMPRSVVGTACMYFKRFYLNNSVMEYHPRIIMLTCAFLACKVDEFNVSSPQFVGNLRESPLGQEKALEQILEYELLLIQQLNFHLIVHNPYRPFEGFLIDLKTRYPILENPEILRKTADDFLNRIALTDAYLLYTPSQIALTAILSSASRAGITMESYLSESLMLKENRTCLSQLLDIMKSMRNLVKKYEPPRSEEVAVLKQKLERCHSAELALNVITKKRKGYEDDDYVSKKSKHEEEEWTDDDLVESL
# Sequence of CDK7/Cyclin H/MNAT1 (P51948 whole entry partner): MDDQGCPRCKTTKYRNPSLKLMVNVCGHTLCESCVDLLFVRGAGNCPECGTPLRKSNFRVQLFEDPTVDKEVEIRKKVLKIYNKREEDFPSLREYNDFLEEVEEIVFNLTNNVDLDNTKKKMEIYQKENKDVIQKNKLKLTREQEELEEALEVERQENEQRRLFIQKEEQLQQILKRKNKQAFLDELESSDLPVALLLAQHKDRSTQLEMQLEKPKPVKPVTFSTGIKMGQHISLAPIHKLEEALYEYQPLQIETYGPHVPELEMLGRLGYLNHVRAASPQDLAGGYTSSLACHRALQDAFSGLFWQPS
# Procedure: as §1, §2
# [2] = system: MDA-MB-468 (triple negative breast cancer); assay: Antiproliferative assay on MDA-MB-468 cells (AlamarBlue, 96 h); format: cell-based; conditions: Homo sapiens, mean value from several measurements
# Procedure: The antiproliferative activity of CDK7 inhibitors according to the present invention was evaluated in a cell test using continuous cell cultures: MDA-MB-468 (triple negative breast cancer, ATCC® HTB-132™) and NCl-H82 (small cell lung cancer, ATCC® HTB-175™) using a viable AlamarBlue dye (Thermo Fisher Scientific Inc, order no. DAL1100). The cells were grown in DMEM (PanEco, order no. C330π) and RPMI-1640 (PanEco, order no. C330π), respectively. The basal growth medium was enriched with L-glutamine at a concentration of 2 mM (PanEco, order no. Φ032) and 10% fetal bovine serum (Gibco, order no. 16140-071). The night before measurement, MDA-MB-468 adherent cells were detached from plastic with a solution of trypsin-EDTA (PanEco, order no. Π039π), the solution was then inactivated by a DMEM complete medium, centrifuged at 1000 RPM (Eppendorf, 5804 R), a suspension of cells was prepared in a DMEM complete medium, introduced into 96-well culture plates (Corning Inc, order no. 3599) at 8×10^3 cells in 100 μl of medium per well. The next day, test compounds were dissolved in DMSO and diluted with a DMEM complete medium to a final concentration ranging from 50 μM to 10 pM. Diluted compounds in a volume of 50 μl were introduced into the plate wells with cells in triplicates (the final concentration of DMSO was no more than 1%) and incubated at 37° C. in an incubator with 5% CO2 for 96 hours. NCl-H82 suspension cell line was prepared on the day of the analysis. 10×10^3 cells in 100 μl of an RPMI-1640 complete medium were added to each well of a 96-well plate. The procedure for sample dilution is as described above. Cells with test compounds were incubated at 37° C. in an incubator with 5% CO2 for 120 hours. Following incubation, […] of AlamarBlue reagent (Thermo Fisher Scientific Inc., order no. DAL1100) was added to the wells, the contents of the plates were stirred in an orbital shaker (Biosan, Latvia), then further incubated for 5.5-6 hours at 37° C. in an incubator with 5% CO2. The number of viable cells was detected using the Infinite M200Pro microplate spectrophotometer (Tecan Group Ltd, Switzerland) by way of measuring a fluorescent signal at an excitation wavelength (λEx) of 540 nm and an emission wavelength (λEm) of 590 nm.
# IC50 value was calculated using the Magellan software (Tecan Group Ltd, Switzerland) by approximating experimental points by four-parameter model with the optimization by Levenberg-Marquardt: […]
Structure (SMILES),IC50 (CDK2/Cyclin A) [nM],IC50 (CDK9/Cyclin K) [nM],IC50 (CDK7/Cyclin H/MNAT1) [nM],IC50 [2] [nM],CC50 at 72 h [1] [nM]
"O=C(Nc1ccncc1)c1cc(-c2nc(N[C@H]3CCCNC3)ncc2C(F)(F)F)c[nH]1 [CDK7_836, 4-(2-{[(3S)-piperidin-3-yl]amino}-5-(trifluoromethyl)pyrimidin-4-yl)-N-(pyridin-4-yl)-1H-pyrrole-2-carboxamide]",> 200,50 to 200,5 to 50,100 to 1000,500 to 2000
"N#Cc1ccc(NC(=O)c2cc(-c3nc(N[C@H]4CCCNC4)ncc3C(F)(F)F)c[nH]2)cc1 [CDK7_837, N-(4-cyanophenyl)-4-(2-{[(3S)-piperidin-3-yl]amino}-5-(trifluoromethyl)pyrimidin-4-yl)-1H-pyrrole-2-carboxamide]",> 200,> 200,50 to 200,100 to 1000,500 to 2000
"O=C(c1cc(-c2nc(N[C@H]3CCCNC3)ncc2C(F)(F)F)c[nH]1)N1CCOCC1 [CDK7_849, 4-[5-(morpholine-4-carbonyl)-1H-pyrrol-3-yl]-N-[(3S)-piperidin-3-yl]-5-(trifluoromethyl) pyrimidin-2-amine]",> 200,50 to 200,< 5,10 to 100,500 to 2000
"O=C(NC1CCOCC1)c1cc(-c2nc(N[C@H]3CCCNC3)ncc2C(F)(F)F)c[nH]1 [CDK7_850, N-(oxan-4-yl)-4-(2-{[(3S)-piperidin-3-yl]amino}-5-(trifluoromethyl)pyrimidin-4-yl)-1H-pyrrole-2-carboxamide]",> 200,50 to 200,5 to 50,100 to 1000,> 2000
"O=C(NC1CCC(O)CC1)c1cc(-c2nc(N[C@H]3CCCNC3)ncc2C(F)(F)F)c[nH]1 (stereo partly drawn) [CDK7_851, N-(4-hydroxycyclo-hexyl)-4-(2-{[(3S)-piperidin-3-yl]amino}-5-(trifluoromethyl)pyrimidin-4-yl)-1H-pyrrole-2-carboxamide]",> 200,50 to 200,5 to 50,> 1000,> 2000
"O=C(NCc1ccccc1)c1cc(-c2nc(N[C@H]3CCCNC3)ncc2C(F)(F)F)c[nH]1 [CDK7_997, N-benzyl-4-(2-{[(3S)-piperidin-3-yl]amino}-5-(trifluoromethyl)pyrimidin-4-yl)-1H-pyrrole-2-carboxamide]",> 200,50 to 200,5 to 50,100 to 1000,500 to 2000

# Further lines, with some results ahead:
IC50 (CDK2/Cyclin A) [nM],IC50 (CDK9/Cyclin K) [nM],IC50 (CDK7/Cyclin H/MNAT1) [nM],IC50 [2] [nM],Structure (SMILES),CC50 at 72 h [1] [nM]
> 200,50 to 200,5 to 50,100 to 1000,"CN1CCN(C(=O)c2cc(-c3nc(N[C@H]4CCCNC4)ncc3C(F)(F)F)c[nH]2)CC1 [CDK7_539, 4-[5-(4-methylpiperazine-1-carbonyl)-1H-pyrrol-3-yl]-N-[(3S)-piperidin-3-yl]-5-(trifluoromethyl) pyrimidin-2-amine]",> 2000
> 200,50 to 200,5 to 50,100 to 1000,"O=C(Nc1ncc[nH]1)c1cc(-c2nc(N[C@H]3CCCNC3)ncc2C(F)(F)F)c[nH]1 [CDK7_833, N-(1H-imidazol-2-yl)-4-(2-{[(3S)-piperidin-3-yl]amino}-5-(trifluoromethyl)pyrimidin-4-yl)-1H-pyrrole-2-carboxamide]",500 to 2000
> 200,5 to 50,5 to 50,10 to 100,"O=C(Nc1nccs1)c1cc(-c2nc(N[C@H]3CCCNC3)ncc2C(F)(F)F)c[nH]1 [CDK7_834, 4-(2-{[(3S)-piperidin-3-yl]amino}-5-(trifluoromethyl)pyrimidin-4-yl)-1N-(1,3-thiazol-2-yl)-1H-pyrrole-2-carboxamide]",100 to 500
> 200,5 to 50,5 to 50,10 to 100,"CNC(=O)c1cc(-c2nc(N[C@H]3CCCNC3)ncc2C(F)(F)F)c[nH]1 [CDK7_846, N-methyl-4-(2-{[(3S)-piperidin-3-yl]amino}-5-(trifluoromethyl)pyrimidin-4-yl)-1H-pyrrole-2-carboxamide]",500 to 2000
> 200,5 to 50,5 to 50,10 to 100,"O=C(NCC(F)(F)F)c1cc(-c2nc(N[C@H]3CCCNC3)ncc2C(F)(F)F)c[nH]1 [CDK7_847, 4-(2-{[(3S)-piperidin-3-yl]amino}-5-(trifluoromethyl)pyrimidin-4-yl)-N-(2,2,2-trifluoroethyl)-1H-pyrrole-2-carboxamide]",100 to 500
> 200,5 to 50,5 to 50,> 1000,"CS(=O)(=O)CCNC(=O)c1cc(-c2nc(N[C@H]3CCCNC3)ncc2C(F)(F)F)c[nH]1 [CDK7_848, N-(2-methanesulfon-ylethyl)-4-(2-{[(3S)-piperidin-3-yl]amino}-5-(trifluoromethyl)pyrimidin-4-yl)-1H-pyrrole-2-carboxamide]",> 2000
> 200,> 200,5 to 50,100 to 1000,"CN(C)C(=O)c1nc(-c2nc(N[C@H]3CCCNC3)ncc2C(F)(F)F)c[nH]1 [CDK7_966, N,N-dimethyl-4-(2-{[(3S)-piperidin-3-yl]amino}-5-(trifluoromethyl)py-rimidin-4-yl)-1H-imidazole-2-carboxamide]",> 2000
> 200,50 to 200,5 to 50,100 to 1000,"FC(F)(F)c1cnc(N[C@H]2CCCNC2)nc1-c1cc[nH]c1 [CDK7_972, N-[(3S)-piperidin-3-yl]-4-(1H-pyrrol-3-yl)-5-(trifluoromethyl)py-rimidin-2-amine]",500 to 2000
> 200,> 200,5 to 50,> 1000,"CN(Cc1ccccc1)C(=O)c1cc(-c2nc(N[C@H]3CCCNC3)ncc2C(F)(F)F)c[nH]1 [CDK7_998, N-benzyl-N-methyl-4-(2-{[(3S)-piperidin-3-yl]amino}-5-(trifluoromethyl)pyrimidin-4-yl)-1H-pyrrole-2-carboxamide]",> 2000
